Test results: PubChem BioAssay AID179 (DTP/NCI, 2004)
Active and inactive are the calls of the source.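 The calls were made as follows: active = compounds giving half or more protection of infected cells from virus-caused growth loss, again on retest; inactive = the rest.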

System: CEM cells HIV-1 protection, formazan growth assay
Assay: NCI AIDS Antiviral Assay
Conditions: for IC50: measured here: growth of uninfected CEM cells
Procedure, shortened: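 Human CEM cells, uninfected and HIV-1-infected, received five drug concentrations, and growth was read by soluble formazan assay. Compounds giving at least 50% protection were retested; reproducible 100% protection defined confirmed active.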

Structure (SMILES)	EC50	IC50	outcome
Cn1c(=O)c2c(nc(NCCCCl)n2CC(=O)O)n(C)c1=O	> 200 µM	> 200 µM	–
CN(C)c1ncnc2c1ncn2C1C=CC(COS(N)(=O)=O)C1 (stereo not drawn)	> 200 µM	> 200 µM	–
CCCCCCCCCCCCCCCCCCOc1ccc2c(c1)-c1nc-2nc2[nH]c(nc3nc(nc4[nH]c(n1)c1cc(OCCCCCCCCCCCCCCCCCC)ccc41)-c1ccc(OCCCCCCCCCCCCCCCCCC)cc1-3)c1cc(OCCCCCCCCCCCCCCCCCC)ccc21	> 8.51 µM	> 8.51 µM	–
CC(Cl)CN1COc2c3c(c4ccccc4c2C1)CN(CC(C)Cl)CO3 (stereo not drawn)	> 91.2 µM	27.5 µM	–
Clc1cc(Cc2cc(Cl)c(Cl)c3c2OCOC3)c2c(c1Cl)COCO2	–	–	inactive
C/C=C1/CN2CCc3c4n(c5ccccc35)[C@@H](CO)C1CC42 (stereo partly drawn)	> 61.7 µM	> 61.7 µM	–
O=C1C(=Cc2ccc(Cl)cc2)C(=O)c2ccccc21	> 17.4 µM	> 17.4 µM	–
CCOC(=O)NC(C(F)(F)F)(C(F)(F)F)P(=O)(OCC(C)C)OCC(C)C	> 200 µM	5.37 µM	–
COc1cc(C2C(C(=O)Nc3ccc([N+](=O)[O-])cc3)=C(C)NC(C)=C2C(=O)Nc2ccc([N+](=O)[O-])cc2)ccc1O	> 9.33 µM	> 9.33 µM	–
CC1=NNC(=O)C1C1C=C(c2c[nH]c3ccccc23)OC1=O (stereo not drawn)	> 200 µM	102 µM	–
CCOC(=O)c1ccc(NC(=O)c2cccc3c(Nc4ccc(S(=O)(=O)Nc5cc(C)on5)cc4)c4ccccc4nc23)cc1	> 200 µM	4.57 µM	–
CCCCOC1NC(=O)NC(=O)C1(F)C(=O)OCC (stereo not drawn)	> 200 µM	6.61 µM	–
Cc1ccc(S(=O)(=O)OC(F)(F)C(F)(F)F)cc1	> 234 µM	> 234 µM	–
Cn1c2ccccc2c2c(=O)[nH]c(=O)[nH]c21	> 200 µM	> 200 µM	–
O=CC[C@@H]1c2ccccc2C=C[C@]12C=CC(=O)CC2	> 74.1 µM	53.7 µM	–
CC1(C)CCCC(C)(C)N1[P-]C(=O)[P-]N1C(C)(C)CCCC1(C)C.[C-]#[O+].[C-]#[O+].[C-]#[O+].[C-]#[O+].[C-]#[O+].[C-]#[O+].[Fe].[Fe] (stereo not drawn)	> 2.24 µM	> 2.24 µM	–
CCC1(CC)COP(=O)(Oc2ccccc2)OC1	> 200 µM	> 200 µM	–

Structure (SMILES)	EC50	IC50	outcome
O=C1C(Br)=C[C@H]2C3C=CC(Br)(C3=O)[C@@H]12 (stereo partly drawn)	> 794 µM	3.72 µM	–
CCN(CCCN(CC)C(=O)N[C@@H](Cc1ccccc1)C(=O)NC)C(=O)N[C@@H](Cc1ccccc1)C(=O)NC	> 200 µM	> 200 µM	–
Nc1ncnc2c1ccn2CC=C(CO)CO	> 200 µM	> 200 µM	–
COc1ccc(OC)c(NC(=O)CCC/C(CC(=O)c2ccc(O)c(OC)c2)=N\Nc2nnc(C)n2N)c1	> 7.24 µM	> 7.24 µM	–
S=c1sc2c(n1-c1ccccc1)NC=NC2S (stereo not drawn)	> 468 µM	22.9 µM	–
COC(OC)c1cccc2c1C(=O)CCC1(CC2)OCCCCO1	> 200 µM	> 200 µM	–
O=CNc1cccc2c(=O)[nH][nH]c(=O)c12	> 126 µM	> 126 µM	–
CN1CCN(C)c2nc3ccccc3nc21	15.1 µM	87.1 µM	–
O=C(/C=C/c1ccc(O)cc1)c1cc(Cl)ccc1O	–	–	inactive
COc1ccc2cc(-c3ccc(OC)c(OC)c3)c(=O)oc2c1	> 200 µM	> 200 µM	–
CC1=NNC(=O)C12CC2	–	–	inactive
CCOC(=O)COc1cccc2c1C(=O)CCO2	–	–	inactive
CC(NC(=O)C(Cc1ccc(OC(=O)c2ccccc2)cc1)NC(=O)OC(C)(C)C)C(=O)NCC(=O)NC(Cc1ccccc1)C(=O)NN (stereo not drawn)	> 200 µM	11.7 µM	–
Cc1nc2cn3c(c2c(=O)[nH]1)CCCCC3	> 200 µM	> 200 µM	–
Cc1c2ccccc2nc(CS(=O)(=O)c2ccccc2)[n+]1[O-]	> 200 µM	12.6 µM	–
Cn1c2c(c3ccccc31)CCN(CCN1CCN(c3ccccc3)CC1)C2=O	–	–	inactive
COc1ccc(N2C(=O)C3c4[nH]c5ccccc5c4C4CCC(C(C)(C)C)CC4C3C2=O)cc1OC (stereo not drawn)	> 2.14 µM	> 2.14 µM	–
